{"source": "patent US20240262848A1", "about": "“HETEROCYCLIC COMPOUNDS, COMPOSITIONS THEREOF, AND METHODS OF TREATMENT THEREWITH” (BeiGene, Ltd., priority 2022, published 2024)", "key": {"[1]": {"tested_on": "pERK1/2(THR202/TYR204) level in SW620 cell line", "experiment": "KRAS G12V pERK assay in SW620 cells (HTRF)", "type": "cell-based", "details": "Homo sapiens, SW-620, Table 4, 2 hrs compound treatment", "experimental": "SW620 cell line was used in this study. Cells were maintained in RPMI 1640 supplemented with 10% fetal bovine serum (Thermo Fisher), 50 units/mL penicillin and streptomycin (Thermo Fisher) and kept at 37° C. in a humidified atmosphere of 5% CO2 in air. Cells were reinstated from frozen stocks that were laid down within 30 passages from the original cells purchased. 40000 cells per well were seeded into a 96-well plate and incubated overnight. Cells were treated with a 10-point dilution series. The final compound concentration is from 0 to 10 μM. After 2 hrs compound treatment, cells were lysed, and the pERK1/2(THR202/TYR204) level in the cell lysates was detected by HTRF kit (Cisbio). In brief, a total of 16 μL of cell lysate from each well of a 96-well plate was transferred to a 384-well white assay plate. Lysate from each well was incubated with 2 μL of Eu3+-cryptate (donor) labeled anti-phospho-ERK1/2 and 2 μL of D)2 (acceptor) labeled anti-phospho-ERK1/2 antibodies (Cisbio) overnight in dark at room temperature. When donor and acceptor are in close proximity, excitation of the donor with laser triggers a Fluorescence Resonance Energy Transfer (FRET) towards the acceptor, which in turn fluoresces at 655 nm wavelength. FRET signals were measured using a PHERAstar FSX reader (BMG Labtech). IC50 determination was performed by fitting the curve of percent inhibition versus the log of the inhibitor concentration using Dotmatics."}, "[2]": {"target": "GST-tagged GDP-loaded KRAS G12V (amino acids 1-169) (Homo sapiens, UniProt P01116, G12V)", "sequence (P01116 1-169 isoform P01116-2 G12V)": "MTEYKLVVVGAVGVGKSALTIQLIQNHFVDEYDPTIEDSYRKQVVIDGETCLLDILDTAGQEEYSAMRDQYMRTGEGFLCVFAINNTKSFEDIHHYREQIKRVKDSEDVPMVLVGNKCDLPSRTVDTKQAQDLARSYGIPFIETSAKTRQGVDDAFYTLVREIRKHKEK", "experiment": "KRAS G12V probe displacement assay (TR-FRET)", "type": "binding", "details": "Table 4; KRAS G12V 2 nM, biotinylated probe 2 2.5 nM", "experimental": "Plates are incubated at 24 °C for 1 hr. […] After 1 hr incubation at 24° C."}}, "data": [{"smiles": "CN1c2nc(OC[C@@]34CCCN3C[C@H](F)C4)nc3c(F)c(-c4cc(N)cc(Cl)c4C(F)(F)F)nc(c23)O[C@@H]2CCC[C@H](O)[C@H]21", "note": "(relative stereo) [Example 47, (7aR*,11S*,11aR*)-5-(5-amino-3-chloro-2-(trifluoromethyl)phenyl)-4-fluoro-2-(((2R,7aS)-2-fluorotetrahydro-1H-pyrrolizin-7a(5H)-yl)methoxy)-12-methyl-7a, 8,10,11,11a, 12-hexahydro-9H-7-oxa-1,3,6,12-tetraazapleiaden-11-ol]", "values": [{"measurement": "IC50", "setting": "[1]", "value": 73, "unit": "nM"}, {"measurement": "IC50", "setting": "[2]", "value": 0.61, "unit": "nM"}]}, {"smiles": "CCN1c2nc(OCC34CCCN3CC(F)C4)nc3c(F)c(-c4cc(N)cc(Cl)c4C(F)(F)F)nc(c23)OCCC12CC2", "note": "[Example 55, 3-chloro-5-(11-ethyl-4-fluoro-2-(((2R,7aS)-2-fluorotetrahydro-1H-pyrrolizin-7a(5H)-yl)methoxy)-8,9-dihydro-11H-7-oxa-1,3,6,11-tetraazaspiro[cycloocta[de]naphthalene-10,1′-cyclopropan]-1(11a), 2,3a, 3 al(6a), 5-pentaen-5-yl)-4-(trifluoromethyl)aniline]", "values": [{"measurement": "IC50", "setting": "[1]", "value": 41, "unit": "nM"}, {"measurement": "IC50", "setting": "[2]", "value": 0.57, "unit": "nM"}]}, {"smiles": "C#Cc1c(F)ccc2cc(O)cc(-c3nc4c5c(nc(OC[C@@]67CCCN6C[C@H](F)C7)nc5c3F)N(C3CC3)CCCO4)c12", "note": "[Example 5, 4-(11-cyclopropyl-4-fluoro-2-(((2R,7aS)-2-fluorotetrahydro-1H-pyrrolizin-7a(5H)-yl)methoxy)-8,9,10,11-tetrahydro-7-oxa-1,3,6,11-tetraazacycloocta[de]naphthalen-5-yl)-5-ethynyl-6-fluoronaphthalen-2-ol]", "values": [{"measurement": "IC50", "setting": "[1]", "value": 288, "unit": "nM"}, {"measurement": "IC50", "setting": "[2]", "value": 0.87, "unit": "nM"}]}, {"smiles": "Cc1cc(N)cc(-c2nc3c4c(nc(OC[C@@]56CCCN5C[C@H](F)C6)nc4c2F)N(C)C2(CCO3)CC2)c1C(F)(F)F", "note": "[Example 53, 3-(4-fluoro-2-(((2R,7aS)-2-fluorotetrahydro-1H-pyrrolizin-7a(5H)-yl)methoxy)-11-methyl-8,9-dihydro-11H-7-oxa-1,3,6,11-tetraazaspiro[cycloocta[de]naphthalene-10,1′-cyclopropan]-1(11a), 2,3a, 3 al(6a), 5-pentaen-5-yl)-5-methyl-4-(trifluoromethyl)aniline]", "values": [{"measurement": "IC50", "setting": "[1]", "value": 26, "unit": "nM"}, {"measurement": "IC50", "setting": "[2]", "value": 0.63, "unit": "nM"}]}, {"smiles": "CCN1c2nc(OC[C@@]34CCCN3C[C@H](F)C4)nc3c(F)c(-c4cc(N)cc(C)c4C(F)(F)F)nc(c23)O[C@H]2COCC[C@@H]21", "note": "[Example 57, 3-((7aR,11aS)-12-ethyl-4-fluoro-2-(((2R,7aS)-2-fluorotetrahydro-1H-pyrrolizin-7a(5H)-yl)methoxy)-7a, 8,10,11,11a, 12-hexahydro-7,9-dioxa-1,3,6,12-tetraazapleiaden-5-yl)-5-methyl-4-(trifluoromethyl)aniline]", "values": [{"measurement": "IC50", "setting": "[1]", "value": 41, "unit": "nM"}, {"measurement": "IC50", "setting": "[2]", "value": 0.83, "unit": "nM"}]}, {"smiles": "CN1CC2(COC2)COc2nc(-c3cc(N)cc(Cl)c3C(F)(F)F)c(F)c3nc(OC[C@@]45CCCN4C[C@H](F)C5)nc1c23", "note": "[Example 11, 3-chloro-5-(4-fluoro-2-(((2R,7aS)-2-fluorotetrahydro-1H-pyrrolizin-7a(5H)-yl)methoxy)-11-methyl-10,11-dihydro-8H-7-oxa-1,3,6,11-tetraazaspiro[cycloocta[de]naphthalene-9,3′-oxetan]-1(11a), 2,3a, 3 al(6a), 5-pentaen-5-yl)-4-(trifluoromethyl)aniline]", "values": [{"measurement": "IC50", "setting": "[1]", "value": 624, "unit": "nM"}, {"measurement": "IC50", "setting": "[2]", "value": 16, "unit": "nM"}]}, {"smiles": "CN1c2nc(OC[C@@]34CCCN3C[C@H](F)C4)nc3c(F)c(-c4cc(N)cc(Cl)c4C(F)(F)F)nc(c23)OCCC12CCC2", "note": "[Example 32, 3-chloro-5-(4′-fluoro-2′-(((2R,7aS)-2-fluorotetrahydro-1H-pyrrolizin-7a(5H)-yl)methoxy)-11′-methyl-8′,9′-dihydro-11′H-7′-oxa-1′,3′,6′,11′-tetraazaspiro[cyclobutane-1,10′-cycloocta[de]naphthalen]-1′(11a′), 2′,3a′, 3 al′(6a′), 5′-pentaen-5′-yl)-4-(trifluoromethyl)aniline]", "values": [{"measurement": "IC50", "setting": "[1]", "value": 133, "unit": "nM"}, {"measurement": "IC50", "setting": "[2]", "value": 3.4, "unit": "nM"}]}, {"smiles": "CN1c2nc(OC[C@@]34CCCN3C[C@H](F)C4)nc3c(F)c(-c4cc(N)cc(Cl)c4C(F)(F)F)nc(c23)OCCC12CC(O)C2", "note": "(stereo partly drawn) [Example 33, 5′-(5-amino-3-chloro-2-(trifluoromethyl)phenyl)-4′-fluoro-2′-(((2R,7aS)-2-fluorotetrahydro-1H-pyrrolizin-7a(5H)-yl)methoxy)-11′-methyl-8′,9′-dihydro-11′H-7′-oxa-1′,3′,6′,11′-tetraazaspiro[cyclobutane-1,10′-cycloocta[de]naphthalen]-1′(11a′), 2′0.3a′, 3 al′(6a′), 5′-pentaen-3-ol]", "values": [{"measurement": "IC50", "setting": "[1]", "value": 17, "unit": "nM"}, {"measurement": "IC50", "setting": "[2]", "value": 0.39, "unit": "nM"}]}, {"smiles": "C#Cc1c(F)ccc2cc(O)cc(-c3cc4c5c(nc(OC[C@@]67CCCN6C[C@H](F)C7)nc5c3F)N(C)CCCO4)c12", "note": "[Example 1, 5-ethynyl-6-fluoro-4-(11-fluoro-2-(((2R,7aS)-2-fluorotetrahydro-1H-pyrrolizin-7a(5H)-yl)methoxy)-4-methyl-4,5,6,7-tetrahydro-[1,5]oxazocino[4,3,2-de]quinazolin-10-yl)naphthalen-2-ol]", "values": [{"measurement": "IC50", "setting": "[1]", "value": 624, "unit": "nM"}, {"measurement": "IC50", "setting": "[2]", "value": 3.2, "unit": "nM"}]}, {"smiles": "C[C@@H]1CCOc2c(Cl)c(-c3ccc(F)c4sc(N)c(C#N)c34)c(F)c3nc(OC[C@@]45CCCN4C[C@H](F)C5)nc(c23)N1C", "note": "[Example 19, 2-amino-4-((R)-9-chloro-11-fluoro-2-(((2R,7aS)-2-fluorotetrahydro-1H-pyrrolizin-7a(5H)-yl)methoxy)-4,5-dimethyl-4,5,6,7-tetrahydro-[1,5]oxazocino[4,3,2-de]quinazolin-10-yl)-7-fluorobenzo[b]thiophene-3-carbonitrile]", "values": [{"measurement": "IC50", "setting": "[1]", "value": 22, "unit": "nM"}, {"measurement": "IC50", "setting": "[2]", "value": 0.65, "unit": "nM"}]}, {"smiles": "CC1CCN(C)c2nc(OC[C@@]34CCCN3C[C@H](F)C4)nc3c(F)c(-c4cc(N)cc(Cl)c4C(F)(F)F)nc(c23)O1", "note": "(stereo partly drawn) [Example 14, 3-chloro-5-(4-fluoro-2-(((2R,7aS)-2-fluorotetrahydro-1H-pyrrolizin-7a(5H)-yl)methoxy)-8,11-dimethyl-8,9,10,11-tetrahydro-7-oxa-1,3,6,11-tetraazacycloocta[de]naphthalen-5-yl)-4-(trifluoromethyl)aniline]", "values": [{"measurement": "IC50", "setting": "[1]", "value": 414, "unit": "nM"}, {"measurement": "IC50", "setting": "[2]", "value": 13, "unit": "nM"}]}, {"smiles": "CN1CCOC(C)(COc2nc3c4c(nc(-c5cc(N)cc(Cl)c5C(F)(F)F)c(F)c4n2)O[C@H]2COCC[C@@H]2N3C)C1", "note": "(stereo partly drawn) [Example 63, 3-chloro-5-((7aR,11aS)-2-((2,4-dimethylmorpholin-2-yl)methoxy)-4-fluoro-12-methyl-7a, 8,10,11,11a, 12-hexahydro-7,9-dioxa-1,3,6,12-tetraazapleiaden-5-yl)-4-(trifluoromethyl)aniline]", "values": [{"measurement": "IC50", "setting": "[1]", "value": 25, "unit": "nM"}, {"measurement": "IC50", "setting": "[2]", "value": 1.1, "unit": "nM"}]}, {"smiles": "Nc1cc(Cl)c(C(F)(F)F)c(-c2nc3c4c(nc(OC[C@@]56CCCN5C[C@H](F)C6)nc4c2F)N(CCO)CCO3)c1", "note": "[Example 7, 2-(5-(5-amino-3-chloro-2-(trifluoromethyl)phenyl)-4-fluoro-2-(((2R,7aS)-2-fluorotetrahydro-1H-pyrrolizin-7a(5H)-yl)methoxy)-8,9-dihydro-10H-7-oxa-1,3,6,10-tetraazacyclohepta[de]naphthalen-10-yl)ethan-1-ol]", "values": [{"measurement": "IC50", "setting": "[1]", "value": 586, "unit": "nM"}, {"measurement": "IC50", "setting": "[2]", "value": 2.5, "unit": "nM"}]}, {"smiles": "CN1c2nc(OC[C@@]34CCCN3C[C@H](F)C4)nc3c(F)c(-c4cc(N)cc(Cl)c4C(F)(F)F)nc(c23)OCC12CCC2", "note": "[Example 24, 3-chloro-5-(4′-fluoro-2′-(((2R,7aS)-2-fluorotetrahydro-1H-pyrrolizin-7a(5H)-yl)methoxy)-10′-methyl-8′H, 10′H-7′-oxa-1′,3′,6′,10′-tetraazaspiro[cyclobutane-1,9′-cyclohepta[de]naphthalen]-1′(10a′), 2′,3a′, 3 al′(6a′), 5′-pentaen-5′-yl)-4-(trifluoromethyl)aniline]", "values": [{"measurement": "IC50", "setting": "[1]", "value": 95, "unit": "nM"}, {"measurement": "IC50", "setting": "[2]", "value": 2.6, "unit": "nM"}]}, {"smiles": "Cc1c(F)c(N)cc(-c2nc3c4c(nc(OC[C@@]56CCCN5C[C@H](F)C6)nc4c2F)N(C)[C@H]2CCOC[C@@H]2O3)c1C(F)(F)F", "note": "[Example 67, 2-fluoro-5-((7aR,11aS)-4-fluoro-2-(((2R,7aS)-2-fluorotetrahydro-1H-pyrrolizin-7a(5H)-yl)methoxy)-12-methyl-7a, 8,10,11,11a, 12-hexahydro-7,9-dioxa-1,3,6,12-tetraazapleiaden-5-yl)-3-methyl-4-(trifluoromethyl)aniline]", "values": [{"measurement": "IC50", "setting": "[1]", "value": 12, "unit": "nM"}, {"measurement": "IC50", "setting": "[2]", "value": 0.65, "unit": "nM"}]}, {"smiles": "Nc1cc(Cl)c(C(F)(F)F)c(-c2nc3c4c(nc(OC[C@@]56CCCN5C[C@H](F)C6)nc4c2F)N(C2CC2)CCCO3)c1", "note": "[Example 4, 3-chloro-5-(11-cyclopropyl-4-fluoro-2-(((2R,7aS)-2-fluorotetrahydro-1H-pyrrolizin-7a(5H)-yl)methoxy)-8,9,10,11-tetrahydro-7-oxa-1,3,6,11-tetraazacycloocta[de]naphthalen-5-yl)-4-(trifluoromethyl)aniline]", "values": [{"measurement": "IC50", "setting": "[1]", "value": 549, "unit": "nM"}, {"measurement": "IC50", "setting": "[2]", "value": 8.1, "unit": "nM"}]}]}
